In the first experiment the target is T1, human DGAT1 enzyme (Homo sapiens, UniProt O75907).
T1 construct: made in house; host or cells: Sf9 insect cells (microsomal membranes)
T1 sequence (O75907 1-488): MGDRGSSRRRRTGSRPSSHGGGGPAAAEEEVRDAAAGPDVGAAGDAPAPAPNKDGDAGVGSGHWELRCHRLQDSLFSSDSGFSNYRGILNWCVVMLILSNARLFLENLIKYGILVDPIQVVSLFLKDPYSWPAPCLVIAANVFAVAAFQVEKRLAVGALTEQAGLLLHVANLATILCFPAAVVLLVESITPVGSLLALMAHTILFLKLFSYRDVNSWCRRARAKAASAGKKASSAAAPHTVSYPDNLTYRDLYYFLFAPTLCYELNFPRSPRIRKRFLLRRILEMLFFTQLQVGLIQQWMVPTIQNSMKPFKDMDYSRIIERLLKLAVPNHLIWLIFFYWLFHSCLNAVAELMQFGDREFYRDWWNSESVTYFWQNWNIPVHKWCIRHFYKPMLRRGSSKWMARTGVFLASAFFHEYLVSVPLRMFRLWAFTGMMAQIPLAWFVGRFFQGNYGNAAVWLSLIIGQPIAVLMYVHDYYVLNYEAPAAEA
As to the kind of experiment: in vitro DGAT1 inhibition assay (microsomes, [14C]-palmitoyl-CoA, SPA beads). It is filed as biochemical.
Conditions: not given
As for the experimental part:
The in vitro assay to identify DGAT1 inhibitors uses human DGAT1 enzyme expressed in Sf9 insect cells prepared as microsomes. The reaction was initiated by the addition of the combined substrates 1,2-dioleoyl-sn-glycerol and [^14C]-palmitoyl-Co A and incubated with test compounds and microsomal membranes for 2 hours at room temperature. The assay was stopped by adding 0.5 mg wheat germ agglutinin beads in assay buffer with 1% Brij-35 and 1% 3-cholamidopropyldimethyl-ammonio-1-propane sulfonate. Plates were sealed with TopSeal and incubated for 18 hours to allow the radioactive triglyceride product to come into proximity with the bead. Plates were read on a TopCount instrument.
Percent inhibition was calculated as the percent of (test compound inhibition minus non-specific binding) relative to (total binding minus non-specific binding). IC50 values were determined by curve fitting the data to a Sigmoidal dose-response in GraphPad Prism utilizing the following equation:
Y=A+(B−A)/(1+10̂((Log IC50−X))),
where A and B are the bottom and top of the curve (highest and lowest inhibition), respectively, and X is the logarithm of concentration.
For the molecule `Cc1c(C(=O)Nc2ccc(N3CCN(C(=O)Nc4ccccc4F)CC3)nc2)oc2c(C)cccc12` [Example 8, 4-(5-(3,7-dimethylbenzofuran-2-carboxamido)pyridin-2-yl)-N-(2-fluorophenyl)piperazine-1-carboxamide], half-maximal inhibition (IC50) required 48 nM.

The same experiment, now with this note: human DGAT1 expressed in Sf9 insect cells, microsomes; 2 hours at room temperature; read-out: IC50.
On to `COC(=O)c1cccc(COC2CCN(c3ccc(NC(=O)c4oc5ccc(-c6ccccc6OC)cc5c4C)cn3)CC2)c1` [Example 72, methyl 3-((1-(5-(5-(2-methoxyphenyl)-3-methylbenzofuran-2-carboxamido)pyridin-2-yl)piperidin-4-yloxy)methyl)benzoate], for which the half-inhibitory concentration (IC50) was 13300 nM.

For “ethyl 2-(4-(5-(5-(4-methoxyphenyl)-3-methylbenzofuran-2-carboxamido)pyridin-2-yl)piperazine-1-carboxamido)benzoate [Example 66]”, the IC50 stood at 454 nM. As to `Cc1c(C(=O)Nc2ccc(N3CCN(C(=O)Nc4ccccc4F)CC3)nc2)sc2ccc(-c3ccc(F)cc3)cc12` [Example 55, N-(2-fluorophenyl)-4-(5-(5-(4-fluorophenyl)-3-methylbenzo[b]thiophene-2-carboxamido)pyridin-2-yl)piperazine-1-carboxamide], the IC50 was 78 nM.

Consider `O=C(Nc1ccc(N2CCN(C(=O)Nc3ccccc3F)CC2)nc1)c1csc2ccccc12` [Example 10, 4-(5-(benzo[b]thiophene-3-carboxamido)pyridin-2-yl)-N-(2-fluorophenyl)piperazine-1-carboxamide], for which the IC50 was 37 nM.

Take `Cc1c(C(=O)Nc2ccc(N3CCC(COc4cccc(C(=O)O)c4)CC3)nc2)oc2ccc(Oc3ccccc3)cc12` [Example 94, 3-((1-(5-(3-methyl-5-phenoxybenzofuran-2-carboxamido)pyridin-2-yl)piperidin-4-yl)methoxy)benzoic acid]: the IC50 amounted to 71 nM. Still for that read-out and setting: next, `CCOC(=O)c1ccccc1NC(=O)N1CCN(c2ccc(NC(=O)c3oc4ccc(-c5cccc(F)c5)cc4c3C)cn2)CC1` [Example 30, ethyl 2-(4-(5-(5-(3-fluorophenyl)-3-methylbenzofuran-2-carboxamido)pyridin-2-yl)piperazine-1-carboxamido)benzoate]: 1420 nM; `Cc1c(C(=O)Nc2ccc(N3CCN(C(=O)[C@H](O)c4ccccc4)CC3)nc2)oc2ccccc12` [Example 2, (R)—N-(6-(4-(2-hydroxy-2-phenylacetyl)piperazin-1-yl)pyridin-3-yl)-3-methylbenzofuran-2-carboxamide]: 625 nM. The same measure, in the same setting: next, `Cc1c(C(=O)Nc2ccc(-c3ccc(OCC(C)(C)C(=O)O)nc3)nc2)oc2ccc(-c3ccccc3)cc12` [Example 59, 2,2-dimethyl-3-(5-(3-methyl-5-phenylbenzofuran-2-carboxamido)-2,3′-bipyridin-6′-yloxy)propanoic acid]: 9 nM. Same read-out and setting: for `COc1ccccc1-c1ccc2oc(C(=O)Nc3ccc(N4CCN(C(=O)Nc5ccccc5F)CC4)nc3)c(C)c2c1` [Example 69, N-(2-fluorophenyl)4-(5-(5-(2-methoxyphenyl)-3-methylbenzofuran-2-carboxamido)pyridin-2-yl)piperazine-1-carboxamide] the value was 204 nM.

Regarding `Cc1c(C(=O)Nc2ccc(N3CCC(COc4cccc(C(=O)O)c4)CC3)nc2)oc2ccc(-c3ccccc3F)cc12` [Example 26, 3-((1-(5-(5-(2-fluorophenyl)-3-methylbenzofuran-2-carboxamido)pyridin-2-yl)piperidin-4-yl)methoxy)benzoic acid], the IC50 is 59 nM. Same read-out and setting: for `Cc1ccc(C(=O)O)cc1COC1CCN(c2ccc(NC(=O)c3oc4ccc(-c5ccccc5)cc4c3C)cn2)CC1` [Example 78, 4-methyl-3-((1-(5-(3-methyl-5-phenylbenzofuran-2-carboxamido)pyridin-2-yl)piperidin-4-yloxy)methyl)benzoic acid] the value was 156 nM. For `COc1ccccc1-c1ccc2oc(C(=O)Nc3ccc(N4CCN(C(=O)Nc5ccccc5C(=O)O)CC4)nc3)c(C)c2c1` [Example 70], the half-inhibitory concentration (IC50) is 1090 nM. The same measure, in the same setting: next, `CCOC(=O)c1ccccc1NC(=O)N1CCN(c2ccc(NC(=O)c3oc4ccc(-c5ccccc5)cc4c3C)cn2)CC1` [Example 14, ethyl 2-(4-(5-(3-methyl-5-phenylbenzofuran-2-carboxamido)pyridin-2-yl)piperazine-1-carboxamido)benzoate]: 361 nM; `COc1ccccc1-c1ccc2oc(C(=O)Nc3ccc(N4CCC(COc5cccc(C(=O)O)c5)CC4)nc3)c(C)c2c1` [Example 71]: 171 nM; `Cc1c(C(=O)Nc2ccc(N3CCN(C(=O)Nc4ccccc4C(=O)O)CC3)nc2)oc2ccc(-c3ccccc3F)cc12` [Example 24, 2-(4-(5-(5-(2-fluorophenyl)-3-methylbenzofuran-2-carboxamido)pyridin-2-yl)piperazine-1-carboxamido)benzoic acid]: 59 nM. On the same count and under the same terms, for `CCOC(=O)c1ccccc1NC(=O)N1CCN(c2ccc(NC(=O)c3oc4ccc(-c5ccccc5OC)cc4c3C)cn2)CC1` [Example 68, ethyl 2-(4-(5-(5-(2-methoxyphenyl)-3-methylbenzofuran-2-carboxamido)pyridin-2-yl)piperazine-1-carboxamido)benzoate] the value was 2460 nM; for `Cc1c(C(=O)Nc2ccc(N3CCN(C(=O)Cc4c(F)cccc4F)CC3)nc2)oc2ccccc12` [Example 4, N-(6-(4-(2-(2,6-difluorophenyl)acetyl)piperazin-1-yl)pyridin-3-yl)-3-methylbenzofuran-2-carboxamide], 46 nM.

Consider `Cc1c(C(=O)Nc2ccc(N3CCN(C(=O)Nc4ccccc4F)CC3)nc2)oc2ccc(-c3cccc(F)c3)cc12` [Example 27, N-(2-fluorophenyl)-4-(5-(5-(3-fluorophenyl)-3-methylbenzofuran-2-carboxamido)pyridin-2-yl)piperazine-1-carboxamide], for which the IC50 turned out to be 316 nM. On the same count and under the same terms, next, `Cc1c(C(=O)Nc2ccc(N3CCC(COc4cccc(C(=O)O)c4)CC3)nc2)oc2ccc(Cc3ccccc3)cc12` [Example 93, 3-((1-(5-(5-benzyl-3-methylbenzofuran-2-carboxamido)pyridin-2-yl)piperidin-4-yl)methoxy)benzoic acid]: 56 nM. Still for that read-out and setting: next, `Cc1c(C(=O)Nc2ccc(N3CCC(OCc4cccc(C(=O)O)c4)CC3)nc2)oc2ccc(-c3ccc(F)cc3)cc12` [Example 37, 3-((1-(5-(5-(4-fluorophenyl)-3-methylbenzofuran-2-carboxamido)pyridin-2-yl)piperidin-4-yloxy)methyl)benzoic acid]: 106 nM; `O=C(Nc1ccc(N2CCN(C(=O)Nc3ccccc3F)CC2)nc1)c1coc2ccccc12` [Example 11, 4-(5-(benzofuran-3-carboxamido)pyridin-2-yl)-N-(2-fluorophenyl)piperazine-1-carboxamide]: 95 nM. Same read-out and setting: for `Cc1c(C(=O)Nc2ccc(N3CCN(C(=O)Nc4ccccc4F)CC3)nc2)oc2ccc(-c3ccc(F)cc3)cc12` [Example 40, N-(2-fluorophenyl)-4-(5-(5-(4-fluorophenyl)-3-methylbenzofuran-2-carboxamido)pyridin-2-yl)piperazine-1-carboxamide] the value was 100 nM; for `Cc1c(C(=O)Nc2ccc(-c3ccc(OC4CCC(C(=O)O)CC4)nc3)nc2)oc2ccc(-c3ccccc3)cc12` (stereo not shown) [Example 95, 4-(5-(3-methyl-5-phenylbenzofuran-2-carboxamido)-2,3′-bipyridin-6′-yloxy)cyclohexanecarboxylic acid], 6 nM; for `Cc1c(C(=O)Nc2ccc(N3CCC(COc4cccc(C(=O)O)c4)CC3)nc2)oc2ccc(-c3cccc(F)c3)cc12` [Example 33, 3-((1-(5-(5-(3-fluorophenyl)-3-methylbenzofuran-2-carboxamido)pyridin-2-yl)piperidin-4-yl)methoxy)benzoic acid], 93 nM. For the molecule `Cc1c(C(=O)Nc2ccc(N3CCN(C(=O)Nc4ccccc4F)CC3)nc2)oc2cc(-c3ccccc3)ccc12` [Example 13, N-(2-fluorophenyl)-4-(5-(3-methyl-6-phenylbenzofuran-2-carboxamido)pyridin-2-yl)piperazine-1-carboxamide], the IC50 came out at 282 nM. The same measure, in the same setting: next, `Cc1c(C(=O)Nc2ccc(N3CCN(C(=O)Nc4ccccc4C(=O)O)CC3)nc2)sc2ccc(-c3ccccc3)cc12` [Example 53, 2-(4-(5-(3-methyl-5-phenylbenzo[b]thiophene-2-carboxamido)pyridin-2-yl)piperazine-1-carboxamido)benzoic acid]: 27 nM; `CCOC(=O)c1ccccc1NC(=O)N1CCN(c2ccc(NC(=O)c3oc4ccc(-c5ccccc5F)cc4c3C)cn2)CC1` [Example 21, ethyl 2-(4-(5-(5-(2-fluorophenyl)-3-methylbenzofuran-2-carboxamido)pyridin-2-yl)piperazine-1-carboxamido)benzoate]: 566 nM.

These data come from US20120172369A1 (priority 2009, published 2012).
